Measurements as given in ChEMBL document CHEMBL1141519, “Pyrogallol and its analogs can antagonize bacterial quorum sensing in Vibrio harveyi” (Bioorg Med Chem Lett, 2008).
Calls of active or inactive are those of the source. The rule behind the calls is not given here.

Tests used:
Vibrio harveyi [1] = experiment: Growth inhibition of Vibrio harveyi assessed as time required to double bacterial growth relative to control; format: functional, organism-based
[2] = target: Autoinducer 2-binding periplasmic protein LuxP (Vibrio harveyi, UniProt P54300); experiment: Antagonist activity at LuxP receptor in Vibrio harveyi MM32 assessed as inhibition of autoinducer-2-mediated quorum sensing after 3 to 4 hrs; format: functional
Vibrio harveyi [3] = experiment: Growth inhibition of Vibrio harveyi assessed as time required to double bacterial growth at 20 uM; format: functional

Sequence of Autoinducer 2-binding periplasmic protein LuxP (P54300 whole entry): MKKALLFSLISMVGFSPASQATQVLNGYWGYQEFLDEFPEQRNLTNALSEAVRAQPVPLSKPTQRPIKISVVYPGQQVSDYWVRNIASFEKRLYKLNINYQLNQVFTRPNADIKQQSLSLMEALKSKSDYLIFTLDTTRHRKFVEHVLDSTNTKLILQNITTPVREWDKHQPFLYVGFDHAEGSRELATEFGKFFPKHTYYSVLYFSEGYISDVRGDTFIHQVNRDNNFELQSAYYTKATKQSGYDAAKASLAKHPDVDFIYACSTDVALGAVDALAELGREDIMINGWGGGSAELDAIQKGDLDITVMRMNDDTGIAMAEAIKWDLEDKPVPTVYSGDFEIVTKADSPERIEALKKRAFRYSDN

SMILES	Activity (Vibrio harveyi [1])	IC50 [2]	Time (Vibrio harveyi [3])
O[C@@H]1CCC[C@@H]1O	inactive	–	–
O=C(O)c1cc(O)c(O)c(O)c1 [GALLIC ACID]	inactive	50 µM	–
N#CC(C#N)=Cc1cc(O)c(O)c(O)c1	inactive	–	–
O=C(O)c1ccc(O)c(O)c1O	inactive	61 µM	–
Oc1ccccc1O [CATECHOL]	inactive	59 µM	–
Oc1cccnc1O	inactive	–	–
CCOC(=O)c1oc(C(=O)OCC)c(O)c1O	inactive	–	–
Oc1cccc(O)c1O [PYROGALLOL]	–	2 µM	82 min
O=C(c1ccccc1)c1ccc(O)c(O)c1O	inactive	4 µM	–
O=Cc1ccc(O)c(O)c1O	inactive	4 µM	–
O=Cc1cc(O)c(O)c(O)c1	inactive	12 µM	–
NCCc1cc(O)c(O)c(O)c1	–	22 µM	–
CC(=O)c1ccc(O)c(O)c1O [GALLACETOPHENONE]	inactive	21 µM	–
O=c1ccc2ccc(O)c(O)c2o1 [DAPHNETIN]	inactive	12 µM	–
